Consider one molecule from patent US8211402B2, “CA-IX specific radiopharmaceuticals for the treatment and imaging of cancer” (Molecular Insight Pharmaceuticals, Inc., priority 2008, dated 2012).

In test [1] the target is T1, CA-IX (Homo sapiens, UniProt Q16790).
T1 construct: purchased R&D Systems
As to the kind of experiment: Inhibition of carbonic anhydrase IX (4-nitrophenyl acetate hydrolysis, spectrophotometric at 400 nm). It is filed as biochemical. As to conditions: purified human enzyme 100 nM; 9 mM Tris-HCl, 81 mM NaCl, pH 7.4, 25° C.; 10 min preincubation. How it is done: (§1) Compounds were tested for their ability to inhibit carbonic anhydrase isozymes II and IX in vitro. Purified human enzymes were from R&D Systems (Minneapolis, Minn.). The inhibition constants (Ki) for CA-II and CA-IX were determined by the method of Pocker and Stone. Initial rates of 4-nitrophenyl acetate hydrolysis catalyzed by the different carbonic anhydrase isozymes were measured spectrophotometrically at 400 nm. Solutions of substrate (1×10^−2 to 1×10^−6 M) were prepared in anhydrous acetonitrile. A molar extinction coefficient of 18,000 M^−1·cm^−1 was used for the 4-nitrophenolate formed by hydrolysis under the conditions of the experiment (9 mM Tris-HCl, 81 mM NaCl, pH 7.4, 25° C.). The enzyme concentrations were 100 nM for CA-IX and 30 nM for CA-II. Non-enzymatic hydrolysis rates, determined in the absence of added enzyme, were subtracted from the observed rates. […] Dilutions of inhibitor were added to enzyme solutions and preincubated for 10 min to allow for the formation of the E-I complex prior to the addition of substrate. Acetazolamide was included in all assays as positive controls

Test [2] has as its target T2, CA-II (Homo sapiens, UniProt P00918).
T2 construct: purchased R&D Systems
As to the kind of experiment: Inhibition of carbonic anhydrase II (4-nitrophenyl acetate hydrolysis, spectrophotometric at 400 nm). The test is classed as biochemical. To be noted: purified human enzyme 30 nM; 9 mM Tris-HCl, 81 mM NaCl, pH 7.4, 25° C.; 10 min preincubation. As for the experimental part:
as §1

With `NS(=O)(=O)c1ccc(NC(=S)N[C@@H](CC(=O)O)C(=O)N[C@@H](CC(=O)O)C(=O)NCc2ccc(I)cc2)cc1` [Comparative Example 1], the IC50 (as a rule, the concentration needed to halve the response being measured) in test [1] was determined as 77 nM; in test [2] it was 377 nM.
